± gives the expanded uncertainty stated by the source.
Tests used:
[1] = refractive index (Na D-line) (dimensionless); conditions: 298.2 K; 101.33 kPa; Liquid; Standard Abbe refractometry
[2] = 298.2 K; 101.33 kPa; Liquid; Pycnometric method

| refractive index [1] | mass density [2] | SMILES |
| --- | --- | --- |
| 1.48 ± 0.001 | 1170 ± 10 kg/m3 | CCCCn1cc[n+](C)c1.COCCOCCOS(=O)(=O)[O-] [1-butyl-3-methylimidazolium 2-(2-methoxyethoxy)ethyl sulfate] |
| 1.41 ± 0.001 | 1380 ± 10 kg/m3 | CCCCn1cc[n+](C)c1.F[P-](F)(F)(F)(F)F [1-butyl-3-methylimidazolium hexafluorophosphate] |
| 1.422 ± 0.001 | 1200 ± 10 kg/m3 | CCCCn1cc[n+](C)c1.F[B-](F)(F)F [1-butyl-3-methylimidazolium tetrafluoroborate] |
| 1.538 ± 0.001 | 1210 ± 10 kg/m3 | CCn1cc[n+](C)c1.Cc1ccc(S(=O)(=O)[O-])cc1 [1-ethyl-3-methylimidazolium 4-methylbenzenesulfonate] |
| 1.5225 ± 0.0008 | 1010 ± 2 kg/m3 | CC(O)c1ccccc1 (stereo unspecified) [1-phenylethanol] |
| 1.4865 ± 0.0008 | 1007 ± 2 kg/m3 | CCC(=O)OC(C)c1ccccc1 (stereo unspecified) [1-phenylethyl propionate] |
| 1.382 ± 0.001 | 992 ± 1 kg/m3 | CCC(=O)O [propanoic acid] |
| 1.402 ± 0.001 | 919 ± 2 kg/m3 | C=COC(=O)CC [vinyl propanoate] |
